From US8603737B2, “Methods for identifying HCV protease inhibitors” (priority 2008, dated 2013)

Assays:
[1] = target: T1, HCV (D168V) mutant (Hepatitis C virus genotype 1b, UniProt P26663, D1194V); test: Mass spectrometric analysis of covalent modification, D168V mutant; type: binding; conditions: 3 hours reaction time
T1 construct: genotype 1b mutations in the NS3 protease of A156T, A156S, D168V, D168A, and R155K
Method: (§1) Mass spectrometric analysis of HCV wild type or HCV variants (C159S, A156S, R155K, D168A, A156T, and D168V) in the presence of test compound was performed. 100 pmols of HCV wild type (Bioenza Calif.) was incubated with test compound for 1 hr and 3 hrs at 10-fold excess of test compound to protein. 1 μL aliquots of the samples (total volume of 4.24 μL) were diluted with 10 μL of 0.1% TFA prior to micro C4 ZipTipping directly onto the MALDI target using Sinapinic acid as the desorption matrix (10 mg/mL in 0.1% TFA:Acetonitrile 50:50). Analyses were performed on a Shimadzu Biotech Axima TOF (Shimadzu Instruments) matrix-assisted-laser desorption/ionization Time-of-Flight (MALDI-TOF) mass spectrometer. The same procedure was carried out on 100 pmols of HCV C159S mutant of HCV protease for 3 hrs at 10-fold excess of test compound to protein.

[2] = target: T2, HCV (A156S) mutant (Hepatitis C virus genotype 1b, UniProt P26663, A1182S); test: Mass spectrometric analysis of covalent modification, A156S mutant; type: binding; conditions: 3 hours reaction time
T2 construct: genotype 1b mutations in the NS3 protease of A156T, A156S, D168V, D168A, and R155K
Method: as §1

[3] = tested on: HCV (R155K) mutant; test: Mass spectrometric analysis of covalent modification, R155K mutant; type: binding; conditions: 3 hours reaction time
Method: as §1

[4] = target: T3, HCV (A156T) mutant (Hepatitis C virus genotype 1b, UniProt P26663, A1182T); test: Mass spectrometric analysis of covalent modification, A156T mutant; type: binding; conditions: 3 hours reaction time
T3 construct: genotype 1b mutations in the NS3 protease of A156T, A156S, D168V, D168A, and R155K
Method: as §1

[5] = tested on: HCV RNA replicon in cell line ET (luc-ubi-neo/ET), human Huh7 hepatoma; test: HCV RNA replicon assay (Example 5, Method A); type: cell-based; conditions: Hepatitis C virus, Huh-7, 72 h
Method: The compounds were assayed to evaluate the antiviral activity and cytotoxicity of compounds in vitro using HCV RNA replicons. This assay used the cell line ET (luc-ubi-neo/ET), which is a human Huh7 hepatoma cell line that contains an HCV RNA replicon with a stable luciferase (Luc) reporter and cell culture-adaptive mutations. The HCV RNA levels were directly measured by viral specific TaqMan RT-PCR:
The ET cell line was grown in Dulbecco's modified essential media (DMEM), 10% fetal bovine serum (FBS), 1% penicillin-streptomycin (pen-strep), 1% glutamine, 250 μg/mL G418 in a 5% CO2 incubator at 37° C. All cell culture reagents were obtained from Mediatech (Manassas, Va.). Cells were trypsinized (1% trypsin:EDTA) and plated out at 5×10^3 cells/well in white 96-well assay plates (Costar) dedicated to cell number (cytotoxicity) or antiviral activity assessments. Drugs were added at six 3-fold concentrations each and the assay was run in DMEM, 5% FBS, 1% pen-strep, 1% glutamine. Human interferon alpha-2b (PBL Biolabs, New Brunswick, N.J.) was included in each run as a positive control compound. […] Antiviral activity was measured by analyzing replicon-derived luciferase activity using the Steady-Glo Luciferase Assay System (Promega, Madison, Wis.) according to manufacturer's instruction. The number of cells in each well was determined by CytoTox-1 reagent (Promega). […]

[6] = target: T4, NS3 protease self-cleavage in Huh-7-Luc-Neo-ET cells (Hepatitis C virus genotype 1b, UniProt Q9WMX2, E1202G/T1280I); type: cell-based, HCV; conditions: replicon cells treated for 16 hours, continuous exposure (FIG. 3)
T4 construct: host or cells: Huh-7-Luc-Neo-ET replicon cells (human hepatoma Huh7)
Method: Inhibition of Protease Self Cleavage
The remaining wells were rinsed 2× with PBS then fed with Replicon Media and returned to the incubator.
Cell lysates were separated by SDS-Page (4-20%) and transferred to Immobilon-P PVDF membrane (Millipore Corporation, MA) and blotted with polyclonal anti NS3 antibody (Bioenza, Calif.). Blots were scanned on an Odyssey infrared scanner from Licor and the FL band and cleavage products were quantified separately using the Licor software provided with the scanner. The cleavage product was calculated as a percentage of the total NS3 in each sample and then normalized to the DMSO control so that the DMSO control reflects 100% activity.

Compound: C=CC(=O)N(C)C[C@H](NC(=O)OC(C)(C)C)C(=O)N1C[C@H](OC(=O)N2Cc3cccc(F)c3C2)C[C@H]1C(=O)N[C@]1(C(=O)NS(=O)(=O)C2CC2)C[C@H]1C=C [Compound 4]
- conversion via covalent modification (mass spectrometry) [1]: complete conversion
- conversion via covalent modification (mass spectrometry) [2]: complete conversion
- conversion via covalent modification (mass spectrometry) [3]: good conversion
- conversion via covalent modification (mass spectrometry) [4]: complete conversion

Compound: C=C[C@@H]1C[C@]1(NC(=O)[C@@H]1C[C@@H](Oc2cc(-c3ccccc3)nc3cc(OC)ccc23)CN1C(=O)C(NC(=O)OC(C)(C)C)[C@@H](C)OC(=O)/C=C/C)C(=O)NS(=O)(=O)C1CC1 (stereo partly shown) [Compound 3]
- IC50 ([5]; read-out: Inhibition, Replicon (IC50)): < 10 nM
- IC90 ([5]; read-out: Inhibition, Replicon, IC90 value): < 10 nM

Compound: CC(C)(C)OC(=O)NC1CN(C(=O)CCl)CCC/C=C\[C@@H]2C[C@@]2(C(=O)NS(=O)(=O)C2CC2)NC(=O)[C@@H]2C[C@@H](OC(=O)N3Cc4cccc(F)c4C3)CN2C1=O (stereo partly shown) [Compound 8]
- NS3 internal self-cleavage products after treatment [6]: inhibited
